The source of these data is patent publication US11980209B2, “Consumables” (GIVAUDAN SA, priority 2007, dated 2024).

Assay [1] has as its system perceived sweet taste (panel). The assay is described as follows: Small panel ranking of 5-20 ppm HDG in water (Example 1d). The format is in vivo, human. Particulars: for Rank and taste: rank from least sweet to most sweet. As for the experimental part: Further three small panel testings were performed. HDG samples were prepared in concentrations of 5 ppm, 10 ppm, 15 ppm, and 20 ppm in water. All the samples were coded (presented blind) and given to the panel in random order. The panel was also presented with sucrose solutions for comparison. The panel was asked to taste each sample and rank the samples from the least sweet to most sweet.

Assay [2] relates to perceived sweetness (panelists). The assay is described as follows: Sweetness of HDG in a cola beverage (Example 14). The format is in vivo, human. To be noted: 20 ppm HDG in cola beverage sweetened with 7% sucrose. The source says:
20 ppm of HDG in a cola beverage sweetened with 7% sucrose was compared to control samples (cola without HDG and sweetened with 7 or 9% sucrose) by 9 panelists.
Panelists were instructed to taste and compare the samples in their sweetness intensity and profile.

For assay [3], the system named is perceived sweetness (sweet sensitive panelists). In words: Ranking test with R-index, sweetness enhancement by 10 ppm HDG in 7% sucrose (Example 12). To be noted: for R-index: critical value 37.1 to 62.9%. The format is in vivo, human. As for the experimental part:
The degree of sweetness enhancement of HDG was tested by determining the isointensity of the HDG-enhanced samples in comparison to sucrose samples. The samples contained 10 ppm HDG in 7% sucrose (HDG-10), and various sucrose solutions of different concentration in water (7%, 8%, 9%, and 10%).
15 ml of each sample was presented at room temperature and in random order to 20 sweet sensitive panelists. In two replications over 1 session, panelists were asked to compare and rank the samples from least sweet to most sweet. The critical value indicates the range wherein the difference of two samples is non-significant.

The test system of assay [4] is perceived sweet taste (sweet sensitive panelists). The assay is described as follows: Ranking test with R-index, isointensity of 15 and 20 ppm HDG in water (Example 1d). To be noted: for R-index: critical values 37.26-62.74%. The format is in vivo, human. As for the experimental part: All examples were performed with sweet sensitive panelists able to detect at least 0.5% of sucrose or less, unless stated otherwise. The concentration detectable by the average consumer will be higher. The results were obtained using 20 panelists in two replications.
The sucrose concentration that tastes isointense in sweetness to HDG was determined using samples of 15 ppm and 20 ppm, each of which was directly compared to a sucrose sample (sucrose solutions of 0.5%, 1%, 1.5% and 2% concentration). Fifteen milliliters of each blinded sample was presented, at room temperature, in random order to 20 sweet sensitive panelists. In two replications (over 1 session), panelists were asked to rank the solutions, from least sweet to most sweet. The data was subjected to an R-index analysis.

Assay [5] shares this test system. The assay is described as follows: Ranking test with R-index, isointensity of 20 ppm HDG in 7% sucrose (Example 2b). It is filed as in vivo, human. To be noted: for R-index: critical values 37.11-62.89%. The text has this:
Panels consisted of 20 sweet sensitive subjects and samples were presented in 2 replications over 1 session. Panelists were presented with 7%, 8%, 9% and 10% sucrose solutions in water and a fifth sample of 20 ppm HDG in 7% sucrose in random order. Subjects were asked to rank the samples from low to high with respect to perceived sweet taste.

The subject of assay [6] is sucrose sweetness. To be noted: NHDC at its sweetness detection threshold; Kroeze et al., Chem. Senses 2000; cited from earlier work.
Assay [7] relates to perceived sweet taste (sweet sensitive panelists). The assay is described as follows: Ranking test of 2 ppm NHDC in water (Example 7). It is filed as in vivo, human.
Assay [8] has as its system perceived sweetness (sweet sensitive panelists). The assay is described as follows: Determined isointensities to sucrose solutions of the optional enhancers. The format is in vivo, human. As for the experimental part: The sweetness detection threshold for trilobatin, HDG and optional enhancers were determined by the applicant.
The sweetness detection threshold varies somewhat in different individuals. For example, some individuals are able to detect the sweetness of sucrose in a very low concentration of 0.4%, others need at least 0.7%, or at least 1% or even more. All examples were performed with sweet sensitive panelists able to detect at least 0.5% of sucrose or less. The concentration detectable by the average consumer will therefore be higher.

For assay [9] the test system is unchanged. In words: Sweetness rating on generalized labeled magnitude scale (Example 6). The format is in vivo, human. Particulars: 1% sucrose in water, test run 3. The source says:
Further, panelists were asked to rate each presented sample for sweetness using the generalized labeled magnitude scale (0=no sweetness; […] of any kind). The rating data was compared using the paired t-test.

[10] abbreviates: 10 ppm HDG in 7% sucrose vs 7% sucrose.
Where [11] appears, read: 10 ppm HDG in 7% sucrose vs 8% sucrose.
Setting [12] is: 10 ppm HDG in 7% sucrose vs 9% sucrose.
Setting [13] is: 10 ppm HDG in 7% sucrose vs 10% sucrose.

For `COc1ccc(CCC(=O)c2c(O)cc(O[C@@H]3O[C@H](CO)[C@@H](O)[C@H](O)[C@H]3O)cc2O)cc1O` [HDG, 1-[4-(-D-glucopyranosyloxy)-2,6-dihydroxyphenyl]-3-(3-hydroxy-4-methoxyphenyl)-1-propanone], the isointensity to sucrose is 0% sucrose (water) in assay [1] (5 ppm HDG in water), 1 % sucrose in assay [1] (20 ppm HDG in water) and 8 % sucrose in [3] (10 ppm HDG in 7% sucrose). Also, the Rank and taste in [1] (5 ppm HDG in water) is given as 1 - not sweet; in [1] (10 ppm HDG in water), 2 - very slightly sweet; in [1] (15 ppm HDG in water), 3 - slightly sweet; in assay [1] (20 ppm HDG in water) it was 4 - sweet. For the same compound, in [1] (in water), the “sweetness threshold of HDG detected by sweet sensitive individuals” value is recorded as “about 10 ppm”. Further, in assay [2], the “sweetness compared to 9% sucrose cola control” value is reported as “not as sweet”. In assay [2] (all 9 panelists), the “sweetness compared to 7% sucrose cola control” value is recorded as “significantly sweeter”. For the same compound, the taste profile entry in assay [2] (similar to the sucrose controls in sweetness onset and duration) is on record as “non-lingering”. For the same compound, the “added sucrose sweetness intensity” value in [3] (10 ppm HDG in 7% sucrose) is “about 1 ° Brix”; in assay [5] (20 ppm HDG in 7% sucrose), 1.5-2 ° Brix. Further, the “expected isointensity to sucrose assuming a merely additive effect” value in assay [3] (10 ppm HDG in 7% sucrose) amounted to 7.5%. Further, the “sweetness HDG sample” value is “sweeter” in assay [3] (setting [10]), “isosweet” in [3] (setting [11]), “less” in assay [3] (setting [12]) and “less” in assay [3] (setting [13]). The R-index in assay [3] (setting [10]) is given as 75.2%; in assay [3] (setting [11]), 37.5%; in [3] (setting [12]), 10.7%; in assay [3] (setting [13]), 0.6%; in assay [4] (15 ppm HDG in water vs 0.5% sucrose), 85%; in [4] (15 ppm HDG in water vs 1.0% sucrose), 31%. Besides, the R-index is recorded as 10% in assay [4] (15 ppm HDG in water vs 1.5% sucrose); 1% in assay [4] (15 ppm HDG in water vs 2.0% sucrose); 92% in assay [4] (20 ppm HDG in water vs 0.5% sucrose); 51% in assay [4] (20 ppm HDG in water vs 1.0% sucrose); 33% in assay [4] (20 ppm HDG in water vs 1.5% sucrose); 4% in assay [4] (20 ppm HDG in water vs 2.0% sucrose). Moreover, the R-index in assay [5] (20 ppm HDG in 7% sucrose vs 7% sucrose) turned out to be 94.8%; in [5] (20 ppm HDG in 7% sucrose vs 8% sucrose), 62.6%; in assay [5] (20 ppm HDG in 7% sucrose vs 9% sucrose), 46.0%; in assay [5] (20 ppm HDG in 7% sucrose vs 10% sucrose), 6.8%. Also, the “sample sweetness (HDG, 15 ppm)” value is “sweeter” in assay [4] (15 ppm in water vs 0.5% sucrose solution), “less sweet” in [4] (15 ppm in water vs 1.0% sucrose solution), “less sweet” in assay [4] (15 ppm in water vs 1.5% sucrose solution) and “less sweet” in assay [4] (15 ppm in water vs 2.0% sucrose solution). In addition, the “sample sweetness (HDG, 20 ppm)” value in assay [4] (20 ppm in water vs 0.5% sucrose solution) is given as “Sweeter”; in assay [4] (20 ppm in water vs 1.0% sucrose solution) it was “Isosweet”; in assay [4] (20 ppm in water vs 1.5% sucrose solution), “Less sweet”; in assay [4] (20 ppm in water vs 2.0% sucrose solution), “Less sweet”. Further, the “sample sweetness (7% sucrose + 20 ppm HDG)” value is reported as “Sweeter” in assay [5] (vs 7% sucrose solution), “Isosweet” in assay [5] (vs 8% sucrose solution), “Isosweet” in assay [5] (vs 9% sucrose solution) and “Less sweet” in [5] (vs 10% sucrose solution).

On to `COc1ccc(CCC(=O)c2c(O)cc(O[C@@H]3O[C@H](CO)[C@@H](O)[C@H](O)[C@H]3O[C@@H]3O[C@@H](C)[C@H](O)[C@@H](O)[C@H]3O)cc2O)cc1O` [NHDC, Neohesperidin dihydrochalcone], for which the “enhancement of sucrose sweetness” value in assay [6] was “does not enhance sucrose sweetness”. This compound also returned an isointensity to sucrose in assay [7] (2 ppm NHDC in water) of 0.5 % sucrose. In addition, the NHDC sample sweetness entry is given as “isosweet” in [7] (2 ppm NHDC in water vs 0.5% sucrose solution) and “less sweet” in assay [7] (2 ppm NHDC in water vs 1% sucrose solution). The R-index in [7] (2 ppm NHDC in water vs 1% sucrose, critical values 35.39-64.61%) was found to be 5%.

As for `C[C@@H]1O[C@@H](O[C@H]2[C@H](Oc3cc(O)c(C(=O)CCc4ccc(O)cc4)c(O)c3)O[C@H](CO)[C@@H](O)[C@@H]2O)[C@H](O)[C@H](O)[C@H]1O` [naringin dihydrochalcone, 1-[4-[[2-O-(6-Deoxy-alpha-L-mannopyranosyl)-beta-D-glucopyranosyl]oxy]-2,6-dihydroxyphenyl]-3-(4-hydroxyphenyl)-1-propanone], the results for the isointensity to sucrose in assay [8] (45 ppm naringin dihydrochalcone) and in assay [8] (60 ppm naringin dihydrochalcone) were 0.5 % sucrose and 1.25 % sucrose, respectively.

Take `C=C1C[C@@]23CC[C@H]4[C@@](C)(CCC[C@@]4(C)C(=O)O[C@@H]4O[C@H](CO)[C@@H](O)[C@H](O)[C@H]4O)[C@@H]2CC[C@]1(O[C@@H]1O[C@H](CO)[C@@H](O)[C@H](O[C@@H]2O[C@H](CO)[C@@H](O)[C@H](O)[C@H]2O)[C@H]1O[C@@H]1O[C@H](CO)[C@@H](O)[C@H](O)[C@H]1O)C3` [rebaudioside A, Rebaudioside A]: in assay [8] (20 ppm rebaudioside A), the isointensity to sucrose amounted to 0.75 % sucrose.

Take `C=C1C[C@@]23CC[C@H]4[C@@](C)(CCC[C@@]4(C)C(=O)O[C@@H]4O[C@H](CO)[C@@H](O)[C@H](O)[C@H]4O)[C@@H]2CC[C@]1(O[C@@H]1O[C@H](CO)[C@@H](O)[C@H](O)[C@H]1O[C@@H]1O[C@H](CO)[C@@H](O)[C@H](O)[C@H]1O)C3` [stevioside, Stevioside]: the isointensity to sucrose in assay [8] (30 ppm stevioside) was 0.5 % sucrose; in assay [8] (40 ppm stevioside), 0.75 % sucrose.

For `OC[C@H]1O[C@@](CO)(O[C@H]2O[C@H](CO)[C@@H](O)[C@H](O)[C@H]2O)[C@@H](O)[C@@H]1O` [sucrose, alpha-D-glucopyranosyl-(1→2)-beta-D-fructofuranose], in assay [9], the “sweetness rating, generalized labeled magnitude scale (0=no sweetness; 10=strongest imaginable sensation)” value turned out to be 0.72 ± 0.06.
